{
  "source": "paper PMC4071299",
  "about": "(Toxicology Reports, 2014)",
  "key": {"MCF-7 cells": {"tested_on": "MCF-7 cells", "details": "cited from earlier work"}, "[1]": {"assay": "Disposition and elimination of [14C]-radioactivity after single oral", "format": "in vivo, female Crl:WI(Han) rats"}, "[2]": {"assay": "Elimination and distribution after repeated oral administration", "format": "in vivo, female Crl:WI(Han) rats", "details": "[…] mg/kg for 5 days"}, "[3]": {"assay": "Disposition of [14C]-radioactivity after IV administration of TBBPA", "format": "in vivo, female Crl:WI(Han) rats", "details": "IV 25 mg/kg"}, "[4]": {"assay": "Plasma toxicokinetics of free TBBPA after oral or IV administration", "format": "in vivo, female Crl:WI(Han) rats", "details": "for AUC: free TBBPA in plasma; for half-life: iv, 25 mg/kg"}, "[5]": {"assay": "Biliary elimination in bile-duct cannulated rats after oral dose", "format": "in vivo, female Crl:WI(Han) rats", "details": "oral […] mg/kg, 6 h"}, "rats [6]": {"tested_on": "rats", "details": "single dose by gavage to rats; cited from earlier work"}, "[7]": {"details": "male SD rats, cited from earlier work; for Cmax: read-out: plasma Cmax"}, "[8]": {"details": "20 mg/kg, male F-344 rats; cited from earlier work"}, "TTR": {"tested_on": "TTR", "details": "cited from earlier work"}, "[9]": {"tested_on": "rat thyroid hormone receptor", "details": "cited from earlier work"}, "human transthyretin": {"tested_on": "human transthyretin", "details": "cited from earlier work"}, "MtT/E-2 cells": {"tested_on": "MtT/E-2 cells", "details": "lower extent than bisphenol A; cited from earlier work"}, "[10]": {"tested_on": "progesterone receptor (PR)", "details": "transfected yeast; cited from earlier work"}, "estradiol sulfation": {"tested_on": "estradiol sulfation", "details": "in vitro; cited from earlier work"}, "[11]": {"tested_on": "estrogen sulfotransferase SULT1E1", "details": "crystallographic studies; cited from earlier work"}, "rats [12]": {"tested_on": "rats", "details": "cited from earlier work"}},
  "note": "Read-outs that look alike come from different tables or passages of the source.",
  "data": [
    {"smiles": "CC(C)(O)c1cc(Br)c(O)c(Br)c1", "note": "[2,6-dibromo-4-[2-hydroxypropane-2-yl]-phenol]", "values": [
      {"measurement": "estrogenic activity", "setting": "MCF-7 cells", "result": "estrogenic activity"}
    ]},
    {"smiles": "COC(C)(C)c1cc(Br)c(O)c(Br)c1", "note": "[2,6-dibromo-4-[2-methoxypropane-2-yl]-phenol]", "values": [
      {"measurement": "estrogenic activity", "setting": "MCF-7 cells", "result": "estrogenic activity"}
    ]},
    {"smiles": "CC(C)(c1cc(Br)c(O)c(Br)c1)c1cc(Br)c(O)c(Br)c1", "note": "[TBBPA, 2,2′,6,6′-Tetrabromo-4,4′-isopropylidene diphenol]", "values": [
      {"measurement": "dose recovery in feces in 72 h", "setting": "[1]; oral 25 mg/kg", "result": "95.7 ± 3.5", "unit": "%"},
      {"measurement": "dose recovery in feces in 72 h", "setting": "[1]; oral 1000 mg/kg", "result": "98.8 ± 2.2", "unit": "%"},
      {"measurement": "dose recovered in urine", "setting": "[1]; oral 25, 250 or 1000 mg/kg, 72 h", "result": "0.2–2 % of dose"},
      {"measurement": "dose recovery in feces in 72 h", "setting": "[1]; oral […] mg/kg", "result": "94.3 ± 3.6", "unit": "%"},
      {"measurement": "radioactivity in tissues at 24 h", "setting": "[1]; oral […] mg/kg", "result": "< 2", "unit": "%"},
      {"measurement": "[14C]-radioactivity, blood", "setting": "[1]; oral […] mg/kg, 1 h", "result": "0.6 ± 0.2", "unit": "% dose"},
      {"measurement": "[14C]-radioactivity, blood", "setting": "[1]; oral […] mg/kg, 3 h", "result": "0.4 ± 0.2", "unit": "% dose"},
      {"measurement": "[14C]-radioactivity, feces", "setting": "[1]; oral […] mg/kg, 6 h", "result": "0.1 ± 0.1", "unit": "% dose"},
      {"measurement": "[14C]-radioactivity, urine", "setting": "[1]; oral […] mg/kg, 6 h", "result": "1.2 ± 0.7", "unit": "% dose"},
      {"measurement": "[14C]-radioactivity, blood", "setting": "[1]; oral […] mg/kg, 24 h", "result": "0.06 ± 0.05", "unit": "% dose"},
      {"measurement": "[14C]-radioactivity, feces", "setting": "[1]; oral […] mg/kg, 24 h", "result": "82 ± 18", "unit": "% dose"},
      {"measurement": "[14C]-radioactivity, large intestine", "setting": "[1]; oral […] mg/kg, 24 h", "result": "0.3 ± 0.1", "unit": "% dose"},
      {"measurement": "[14C]-radioactivity, urine", "setting": "[1]; oral […] mg/kg, 24 h", "result": "0.3 ± 0.1", "unit": "% dose"},
      {"measurement": "administered [14C]-radioactivity detected in tissues", "setting": "[1]; tissues collected at 72 h following oral doses", "result": "< 0.1", "unit": "%"},
      {"measurement": "terminal dose recovered from feces", "setting": "[2]; 24 h after final ([14C]) dose", "result": "84 ± 8", "unit": "%"},
      {"measurement": "dose recovered in urine", "setting": "[2]; 24 h after final dose", "result": "Less than 1%"},
      {"measurement": "tissue retention", "setting": "[2]; 24 h after final dose", "result": "minimal"},
      {"measurement": "administered radioactivity eliminated in feces within 6 h", "setting": "[3]", "result": "Approx. 10%"},
      {"measurement": "administered radioactivity eliminated in urine within 6 h", "setting": "[3]", "result": "~1", "unit": "%"},
      {"measurement": "dose recovered in contents of large intestine", "setting": "[3]; 6 h post dose", "result": "~61", "unit": "%"},
      {"measurement": "dose recovered in contents of small intestine", "setting": "[3]; 6 h post dose", "result": "approx. 15%"},
      {"measurement": "[14C]-radioactivity, all other tissues", "setting": "[3]; 6 h post-dose", "result": "less than 1 % of the administered dose"},
      {"measurement": "[14C]-radioactivity, adipose", "setting": "[3]; 6 h post-dosing", "result": "1 ± 0.8", "unit": "%"},
      {"measurement": "[14C]-radioactivity, large intestine", "setting": "[3]; 6 h post-dosing", "result": "3.2 ± 3", "unit": "%"},
      {"measurement": "[14C]-radioactivity, liver", "setting": "[3]; 6 h post-dosing", "result": "1.8 ± 0.6", "unit": "%"},
      {"measurement": "[14C]-radioactivity, small intestine", "setting": "[3]; 6 h post-dosing", "result": "3.2 ± 3.1", "unit": "%"},
      {"measurement": "administered radioactivity remaining in plasma", "setting": "[4]; IV 25 mg/kg, 6 h post dose", "result": "~2", "unit": "%"},
      {"measurement": "AUC", "setting": "[4]; IV (25 mg/kg)", "result": 4286, "unit": "nmol·min/mL"},
      {"measurement": "AUC", "setting": "[4]; Oral ([…] mg/kg)", "result": 1729, "unit": "nmol·min/mL"},
      {"measurement": "half-life", "setting": "[4]; female, Crl:WI(Han), rat, plasma, distribution half-life, IV 25 mg/kg, two-compartment model", "result": 2, "unit": "min"},
      {"measurement": "half-life", "setting": "[4]; female, Crl:WI(Han), rat, plasma, terminal half-life, IV 25 mg/kg, non-compartmental analyses", "result": 133, "unit": "min"},
      {"measurement": "half-life", "setting": "[4]; female, Crl:WI(Han), rat, plasma, terminal half-life, IV 25 mg/kg, two-compartment model", "result": 22, "unit": "min"},
      {"measurement": "Cmax", "setting": "[4]; female, Crl:WI(Han), rat, plasma, po, 250 mg/kg", "result": 5.4, "unit": "µM"},
      {"measurement": "[14C]-radioactivity, bile", "setting": "[5]", "result": "6 ± 7", "unit": "% dose"},
      {"measurement": "LD50", "setting": "rats [6]", "result": "greater than 5 g/kg"},
      {"measurement": "Tmax", "setting": "[7]; oral 200, 500 and 1000 mg/kg", "result": "252 to 300", "unit": "min"},
      {"measurement": "Cmax", "setting": "[7]; 300 mg/kg", "result": 103, "unit": "µM"},
      {"measurement": "Cmax", "setting": "[7]; oral 200 mg/kg", "result": 23, "unit": "µM"},
      {"measurement": "Cmax", "setting": "[7]; oral 500 mg/kg", "result": 34, "unit": "µM"},
      {"measurement": "Cmax", "setting": "[7]; oral 1000 mg/kg", "result": 57, "unit": "µM"},
      {"measurement": "systemic bioavailability", "setting": "[8]", "result": 1.6, "unit": "%"},
      {"measurement": "TTR binding", "setting": "TTR", "result": "T4 competitor"},
      {"measurement": "binding to thyroid hormone receptor", "setting": "[9]", "result": "high affinity"},
      {"measurement": "binding to transthyretin", "setting": "human transthyretin", "result": "bind"},
      {"measurement": "cell proliferation", "setting": "MtT/E-2 cells", "result": "enhanced proliferation"},
      {"measurement": "PR activity", "setting": "[10]", "result": "antagonist"},
      {"measurement": "estrogenic activity", "setting": "MCF-7 cells", "result": "estrogenic activity"},
      {"measurement": "effect on estradiol sulfation", "setting": "estradiol sulfation", "result": "inhibitor"},
      {"measurement": "binding to SULT1E1", "setting": "[11]", "result": "high affinity"},
      {"measurement": "toxicity after intraperitoneal administration", "setting": "rats [12]", "result": "hepatotoxicity and heme metabolism disturbances"}
    ]}
  ]
}
